Data: ChEMBL document CHEMBL2203242, “A regio- and stereoselective 1,3-dipolar cycloaddition for the synthesis of new-fangled dispiropyrrolothiazoles as antimycobacterial agents” (Bioorg Med Chem Lett, 2012)
≈ marks a conversion by molar mass, not a printed value.

How the values were obtained:
[1] = test system: Mycobacterium tuberculosis; experiment: Antimycobacterial activity against Mycobacterium tuberculosis H37Rv by agar dilution method; assay type: functional
[2] = test system: Vero; experiment: Cytotoxicity against african green monkey Vero cells after 72 hrs by MTT assay; assay type: cell-based; details: Chlorocebus sabaeus

Row | Compound | MIC90 [1] | IC50 [2]
1 | COc1cc2c(cc1OC)C(=O)[C@]1(C2)[C@@H](c2ccccc2)[C@@H]2CSCN2[C@@]12C(=O)Nc1ccc(OC(F)(F)F)cc12 | > 6.25 µM | > 62.5 µg/mL
2 | COc1cc2c(cc1OC)C(=O)[C@]1(C2)[C@@H](c2ccccc2Cl)[C@@H]2CSCN2[C@@]12C(=O)Nc1ccc(OC(F)(F)F)cc12 | 11.4 µM (≈ 7.04 µg/mL) | > 62.5 µg/mL
3 | COc1cc2c(cc1OC)C(=O)[C@]1(C2)[C@@H](c2ccc(F)cc2)[C@@H]2CSCN2[C@@]12C(=O)N(N1CCOCC1)c1ccccc12 | 8.12 µM (≈ 4.89 µg/mL) | > 62.5 µg/mL
4 | COc1ccc([C@H]2[C@@H]3CSCN3[C@@]3(C(=O)N(N4CCOCC4)c4ccccc43)[C@@]23Cc2cc(OC)c(OC)cc2C3=O)cc1OC | 21.2 µM (≈ 13.6 µg/mL) | > 62.5 µg/mL
5 | COc1cc2c(cc1OC)C(=O)[C@]1(C2)[C@@H](c2ccccc2)[C@@H]2CSCN2[C@@]12C(=O)N(N1CCOCC1)c1ccccc12 | > 6.25 µM | > 62.5 µg/mL
6 | COc1cc2c(cc1OC)C(=O)[C@]1(C2)[C@@H](c2ccccc2Cl)[C@@H]2CSCN2[C@@]12C(=O)N(N1CCOCC1)c1ccccc12 | 6.29 µM (≈ 3.89 µg/mL) | > 62.5 µg/mL
7 | COc1cc2c(cc1OC)C(=O)[C@]1(C2)[C@@H](c2ccc(F)cc2)[C@@H]2CSCN2[C@@]12C(=O)Nc1ccc(OC(F)(F)F)cc12 | 0.72 µM (≈ 0.432 µg/mL) | > 62.5 µg/mL
8 | COc1ccc([C@H]2[C@@H]3CSCN3[C@@]3(C(=O)Nc4ccc(OC(F)(F)F)cc43)[C@@]23Cc2cc(OC)c(OC)cc2C3=O)cc1OC | 12.2 µM (≈ 7.85 µg/mL) | > 62.5 µg/mL
9 | NNC(=O)c1ccncc1 [ISONIAZID] | 0.73 µM (≈ 0.1 µg/mL) | > 62.5 µg/mL
